# Data published in patent US20060035907A1, “Methods of treating abnormal cell growth using c-MET and m-TOR inhibitors” (priority 2004, published 2006).
# Experiments:
# [1] = test system: BaF3.TPR-MET cells; test: Transwell migration assay; format: cell-based, murine; settings: Mus musculus, compared to DMSO treated cells, n=4, read-out: inhibition of the cell migration
# Description: (§1) Referring to FIG. 1, BaF3 cells lines transformed by tyrosine kinase oncogenes were used to determine cell growth (A-C) or transwell migration (D) in response to the small molecule c-MET kinase inhibitor PHA665752. A: The relative growth of BaF3 cells transformed by TPR-MET in response to different concentrations of PHA665752 was determined after 18 h (n=3). B: TPR-MET transformed BaF3 cells were either left untreated (♦) or treated (▴) with PHA665752 (1 μM) for the indicated time in the presence or absence of IL-3 (n=3). C: BaF3 cells transformed by tyrosine kinase oncogenes were treated for 18 h with PHA665752 (1 μM) (n=3). D: Cells were treated for 18 hr with the indicated dose of PHA665752 and the spontaneous transwell migration relative to DMSO-treated cells determined (n=4).
# [2] = test system: TEL-ABL transformed BaF3 cells; test: Cell growth of TEL-ABL transformed BaF3 cells; format: cell-based, murine; settings: 0.2 μM, 18 hours, FIG. 1C
# Description: (§2) Cells. The murine pre-B cell line BaF3 was grown in RPMI 1640 containing 10% fetal calf serum and 10% WEHI-conditioned medium as a source of murine IL-3. BaF3 cell lines transfected with a BCR/ABL, TEUABL, TEUJAK2, or TEUPDGFβR cDNA were grown in the absence of growth factors. A TPR/MET expressing BaF3 cell line was generated by transfection of an expression vector containing the TPR/MET cDNA as previously described (Sattler, M., Pride, Y. B., Ma, P., Gramlich, J. L., Chu, S. C., Quinnan, L. A., Shirazian, S., Liang, C., Podar, K., Christensen, J. G. & Salgia, R. (2003). Cancer Res, 63, 5462-9.). The number of viable cells after treatment with DMSO or PHA665752 was determined using an MTT assay (In Vitro Toxicology Assay Kit, Sigma, St. Louis, Mo.) or trypan blue exclusion.
# as §1, with “B: TPR-MET transformed BaF3 cells were either left untreated (♦) or treated (▴) with PHA665752 (1 μM) for the indicated time in the presence or absence of IL-3 (n=3). C: BaF3 cells transformed by tyrosine kinase oncogenes were treated for 18 h with PHA665752 (1 μM) (n=3).” left out
# [3] = test system: TEL-PDGFFBR transformed BaF3 cells; test: Cell growth of TEL-PDGFFBR transformed BaF3 cells; format: cell-based, murine; settings: 0.2 μM, 18 hours, FIG. 1C
# Description: as §2
# as §1, with “B: TPR-MET transformed BaF3 cells were either left untreated (♦) or treated (▴) with PHA665752 (1 μM) for the indicated time in the presence or absence of IL-3 (n=3). C: BaF3 cells transformed by tyrosine kinase oncogenes were treated for 18 h with PHA665752 (1 μM) (n=3).” left out
# [4] = test system: AKT[Ser473]; test: Immunoblotting, phospho-AKT[Ser473] in TPR-MET transformed BaF3 cells; format: cell-based, murine; settings: FIG. 4C
# Description: (§3) Immunoblotting. Proteins were extracted from whole cells by lysing them in a Tris buffer (50 mM, pH 8.0) containing NaCl (150 mM), NP40 (1%, v/v), deoxycholic acid (0.5%, w/v), sodium dodecylsulfate (0.1%, w/v), NaF (1 mM), Na3VO4 (1 mM) and glycerol (10%, v/v) (Sigma, St. Louis, Mo.) supplemented with a protease inhibitor cocktail (complete, Roche, Indianapolis, Ind.). Polyclonal antibodies against p70-S6K (Biosource International, Camarillo, Calif.), total c-MET (C-12, Santa Cruz, Santa Cruz, Calif.), phosphatidylinositol-3′-kinase (Upstate Biotechnology, Lake Placid, N.Y.) and phosphorylated AKT[Ser473] or p70-S6K[Thr421/Ser424] (Cell Signaling, Beverly, Mass.), phospho-MET[Tyr1230/1234/1235] (Biosource International, Camarillo, Calif.) as well as phosphotyrosine (4G10, Upstate Biotechnology, Lake Placid, N.Y.) were used for immunoblotting.
# (§4) Referring to FIG. 4, phosphorylation of cellular proteins was determined by immunoblotting in whole cell lysate as indicated using anti-phosphotyrosine antibody (4G10) (A), total c-MET antibody, anti-pY1230/1234/1235-MET antibody (recognizing the corresponding pY361/365/366 sites in TPR-MET), anti-pY1349-MET (recognizing the pY480 site in TPR-MET) and anti-pY1365-MET (recognizing the pY496 site in TPR-MET) phospho-antobodies (B), and phospho-AKT and phospho-S6K antibodies (C). […]
# [5] = test system: TEL-JAK2 transformed BaF3 cells; test: Cell growth of TEL-JAK2 transformed BaF3 cells; format: cell-based, murine; settings: 0.2 μM, 18 hours, FIG. 1C
# Description: as §2
# as §1, with “B: TPR-MET transformed BaF3 cells were either left untreated (♦) or treated (▴) with PHA665752 (1 μM) for the indicated time in the presence or absence of IL-3 (n=3). C: BaF3 cells transformed by tyrosine kinase oncogenes were treated for 18 h with PHA665752 (1 μM) (n=3).” left out
# [6] = molecular target: T1, TPR-MET (Homo sapiens, UniProt P08581); test: Immunoblotting, TPR-MET autophosphorylation with phosphospecific antibodies; format: cell-based; settings: TPR-MET transformed BaF3 cells, FIG. 4B
# T1 construct: TPR portion (fusion partner, nucleoprotein TPR; human entry would be P12270); expressed in transfected cells; host or cells: BaF3 (murine pre-B cell line); the other entry of the earlier key: TPR (P12270, Nucleoprotein TPR)
# Description: as §3, §4
# [7] = test system: TPR-MET transformed BaF3 cells; test: Apoptosis assay, Annexin V / propidiumiodide staining by FACS; format: cell-based, murine; settings: 0.2 µM, 18 h
# Description: (§5) Apoptosis assays. The activity of caspase-3-was measured in cell lysates (CaspACE Assay System, Promega) and Annexin V positive staining was determined by FACS analysis (Annexin-V-Fluos Staining Kit, Roche Diagnostics) according to the manufacturer's directions in cells that were either treated with PHA665752 or the solvent DMSO.
# (§6) Referring to FIG. 2, TPR-MET transformed BaF3 cells were treated for 18 h with either DMSO or the indicated amount of PHA665752 (n=3). A: Annexin V and propidiumiodide staining was determined by flow cytometry. B: Activity of caspase-3 was determined in cell lysate (n=3). C: The percentage of cells in different cell cycle phases was determined by flow cytometry after propidiumiodide staining (n =3).
# [8] = test system: parental BaF3 cells; test: Cell growth of IL-3 stimulated parental BaF3 cells; format: cell-based, murine; settings: 0.2 μM, 72 hour culture (data not shown)
# [9] = test system: tyrosine phosphorylation of cellular proteins in BCR-ABL transformed BaF3 cells; test: Immunoblotting, tyrosine phosphorylation of cellular proteins in BCR-ABL transformed BaF3 cells; format: cell-based, murine; settings: BCR-ABL transformed BaF3 cells (data not shown)
# Description: as §3
# [10] = test system: TPR-MET transformed BaF3 cells; test: Cell cycle analysis (propidiumiodide, FACS); format: cell-based, murine; settings: 18 h
# Description: Cell cycle analysis. Fixed cells were stained with propidiumiodide and cell cycle parameters analyzed by FACS analysis.
# as §6
# [11] = test system: caspase-3; test: Caspase-3 activity in cell lysates; format: cell-based, murine; settings: compared to DMSO treated cells, 18 h, n=3, p<0.03
# Description: as §5, §6
# [12] = test system: BCR-ABL transformed BaF3 cells; test: Cell growth of BCR-ABL transformed BaF3 cells; format: cell-based, murine
# Description: as §2
# as §1, with “B: TPR-MET transformed BaF3 cells were either left untreated (♦) or treated (▴) with PHA665752 (1 μM) for the indicated time in the presence or absence of IL-3 (n=3). C: BaF3 cells transformed by tyrosine kinase oncogenes were treated for 18 h with PHA665752 (1 μM) (n=3).” left out
# [13] = test system: TPR-MET transformed BaF3 cells; test: Cell growth of TPR-MET transformed BaF3 cells (MTT assay or trypan blue exclusion); format: cell-based, murine
# Description: as §2, §1
# Referring to FIG. 5, the relative growth of BaF3 cells transformed by TPR-MET in response to different concentrations of rapamycin (0.01 nM to 10 nM) was determined in the presence (▴) or absence (▪) of PHA665752 (0.5 μM) after a 3 day culture (n=3).
# [14] = test system: tyrosine phosphorylation of cellular proteins in BaF3.TPR-MET cells; test: Immunoblotting, tyrosine phosphorylation of cellular proteins in BaF3.TPR-MET cells; format: cell-based, murine; settings: anti-phosphotyrosine antibody (4G10), FIG. 4A
# Description: as §3, §4
# [15] = test system: p70-S6K[Thr421/Ser424]; test: Immunoblotting, phospho-p70-S6K[Thr421/Ser424] in TPR-MET transformed BaF3 cells; format: cell-based, murine; settings: FIG. 4C
# Description: as §3, §4
# T1 sequence (P08581 with tags, fused parts or gaps): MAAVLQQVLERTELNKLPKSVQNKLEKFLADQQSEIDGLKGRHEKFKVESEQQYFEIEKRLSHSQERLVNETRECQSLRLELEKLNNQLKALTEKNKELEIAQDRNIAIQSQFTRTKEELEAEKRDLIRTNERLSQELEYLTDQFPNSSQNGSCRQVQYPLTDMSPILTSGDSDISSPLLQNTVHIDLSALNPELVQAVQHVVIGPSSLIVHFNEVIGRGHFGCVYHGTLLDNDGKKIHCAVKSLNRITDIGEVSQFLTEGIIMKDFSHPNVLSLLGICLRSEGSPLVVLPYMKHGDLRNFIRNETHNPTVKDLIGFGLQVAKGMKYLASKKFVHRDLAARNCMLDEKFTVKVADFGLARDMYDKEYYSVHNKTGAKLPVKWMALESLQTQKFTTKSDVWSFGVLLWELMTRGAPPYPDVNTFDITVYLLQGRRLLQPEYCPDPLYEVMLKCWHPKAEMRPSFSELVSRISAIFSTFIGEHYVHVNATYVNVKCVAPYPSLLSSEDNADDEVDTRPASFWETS
smiles,measurement,setting,value
"Cc1[nH]c(/C=C2\C(=O)Nc3ccc(S(=O)(=O)Cc4c(Cl)cccc4Cl)cc32)c(C)c1C(=O)N1CCC[C@@H]1CN1CCCC1 [PHA665752, (3Z)-5-[(2,6-dichlorobenzyl)sulfonyl]-3-[(3,5-dimethyl-4-{[(2R)-2-(pyrrolidin-1-ylmethyl)pyrrolidin-1-yl]carbonyl}-1H-pyrrol-2-yl)methylene]-1,3-dihydro-2H-indol-2-one]",inhibition at 0.2 µM,[1],92.5 ± 3%
same,inhibition of cell growth,[2],did not inhibit cell growth
same,inhibition of cell growth,[3],did not inhibit cell growth
same,serine phosphorylation of AKT[Ser473],[4],reduced serine phosphorylation
same,inhibition of cell growth,[5],did not inhibit cell growth
same,"autophosphorylation in the catalytic tyrosine kinase domain at Tyr361/365/366, Tyr480 and Tyr496",[6],inhibits autophosphorylation
same,cells in early apoptosis (Annexin V positive),[7],13.9±1.0%
same,cells in late apoptosis (Annexin V plus propidiumiodide positive),[7],19.2±1.8%
same,number of apoptotic cells (of total population),[7]; control cells 5%,33.1%
same,growth inhibitory effect,[8],did not observe a significant growth inhibitory effect
same,tyrosine phosphorylation of cellular proteins,[9],did not alter tyrosine phosphorylation of cellular proteins
same,percentage of cells in G2/M-phase,"[10]; 0.2 μM, DMSO 12.2%",5.5%
same,percentage of cells in G1-phase,"[10]; 0.2 μM, DMSO 42.4%",77.0%
same,percentage of cells in S-phase,"[10]; 0.2 μM, DMSO 45.4%",17.5%
same,cells in sub-G1-phase,[10]; consistent with apoptotic cells,increase of cells in sub-G1-phase
same,increase in caspase-3 activity,[11],3.5±0.7 fold
same,inhibition of cell growth,"[12]; 0.2 μM, 18 hours, BCR-ABL transformed BaF3 cells, FIG. 1C",did not inhibit cell growth
same,effect on cell growth in the presence of IL-3,"[12]; BCR-ABL transformed cells, control experiment, presence of IL-3, 72 hour culture, FIG. 1B",only little effect on cell growth
same,effect on cell growth in the absence of IL-3,"[13]; BaF3.TPR-MET, absence of IL-3, 72 hour culture, PHA665752 (1 μM) per FIG. 1B legend",completely blocked cell growth
same,IC50,"[13]; Mus musculus, BaF3.TPR-MET cells, after 18 h, FIG. 1A, read-out: IC50, inhibition of cell growth",< 60 nM
same,effect on cell growth in the presence of IL-3,"[13]; TPR-MET transformed cells, presence of IL-3, 72 hour culture, PHA665752 (1 μM) per FIG. 1B legend",only little effect on cell growth
same,tyrosine phosphorylation of cellular proteins,[14],reduced tyrosine phosphorylation of cellular proteins in a dose dependent manner
same,phosphorylation of the mTOR substrate p70-S6K[Thr421/Ser424],[15],reduced phosphorylation
